The target in data set [1] is T1, P0 (RT4 D6P2T Schwannoma cells) (Rattus norvegicus, UniProt P06907).
T1 construct: was performed using P0-expressing RT4 D6P2T cells; host or cells: RT4 D6P2T Schwannoma cells
T1 sequence (P06907 30-248): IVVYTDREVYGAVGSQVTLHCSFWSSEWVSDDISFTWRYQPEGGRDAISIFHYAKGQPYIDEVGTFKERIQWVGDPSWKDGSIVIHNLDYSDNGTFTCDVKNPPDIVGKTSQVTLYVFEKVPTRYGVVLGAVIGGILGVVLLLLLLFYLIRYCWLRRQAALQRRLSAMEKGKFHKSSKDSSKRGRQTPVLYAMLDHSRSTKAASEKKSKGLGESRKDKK
Briefly: Blocking experiment with P0Ab. It counts as cell-based. The settings on record: 5 µL of 1 mg/mL P0Ab one hour prior to tracer; N = 10; ImageJ quantification; p = 0.001. The protocol:
(§1) To all samples, 1 mL medium containing 1 µM Cy5-P0_1–25, Cy5-P0_21–45, Cy5-P0_41–65, Cy5-P0_61–85, Cy5-P0_81–105, Cy5-P0_95–120, or Cy5-P0_101–125 was added at one hour prior to imaging (incubation at 4 °C; N = 3 per tracer). Peptide solutions were sonicated for 20 s prior to addition, in order to prevent aggregation of the peptides in solution. Cy5-functionalized derivatives of a P0-specific antibody (Cy5-P0Ab-H60), the extracellular portion of P0 (Cy5-P0ex) as well as a non-P0-specific peptide (Cy5-NP-41) and non-functionalized Cy5-Maleimide were used as controls (1 µM). A lysosomal (lysotracker green; 2 µL/mL, DND-26, Thermo Fisher) and nuclear stain (Hoechst 33342; 1 mg/mL, Thermo Fisher) were added as means to localize the cell nucleus and intracellular lysosomes. For blocking studies, 5 µL of a 1 mg/mL solution of non-functionalized P0Ab was added to the cells one hour prior to addition of Cy5-P0_101–125. The synthesis of the control compounds is described in the methods section of Additional file 1: Synthesis of control compounds.
(§2) In vitro and ex vivo fluorescence confocal images were acquired using a Leica SP8 WL at sequential settings and 10 × or 63 × magnification. […] For blocking studies, quantification of the fluorescence signal intensity (N = 10 for blocked and non-blocked) in the obtained images was performed using ImageJ according to previously described methods. […]

For data set [2], the system named is P0-expressing RT4 D6P2T myelinating Schwannoma cells. Briefly: Fluorescence confocal microscopy staining of P0-expressing cells. Type of data set: cell-based. The settings on record: 1 µM, 1 h incubation at 4 °C, N = 3 per tracer. The protocol:
Cells were trypsinized and seeded onto 35-mm culture dishes that contained a glass insert (MatTek co) on the day prior to the imaging experiment.
as §1, with “For blocking studies, 5 µL of a 1 mg/mL solution of non-functionalized P0Ab was added to the cells one hour prior to addition of Cy5-P0_101–125. The synthesis of the control compounds is described in the methods section of Additional file 1: Synthesis of control compounds.” left out
as §2

Data set [3] can be described thus: Biodistribution in mice. It counts as in vivo. As to conditions: mouse, CNS, total radioactivity; 10 MBq intravenous (tail vein), 4 h p.i. The procedure:
Synthesis and radiolabelling of DTPA-P0_101–125 with ^111In is described in Additional file 1: synthesis of control compounds. For quantitative assessment of the biodistribution of [^111In]In-DTPA-P0_101–125, 10 MBq of the labelled tracer was injected intravenously (tail vein). The percentage of the injected activity per gram of tissue (%IA/g) was assessed at 2 h post-injection as previously described. Excretion was defined as: (MBq present in animal at 24 h post-tracer administration/injected activity) * 100%.

Data set [4] can be described thus: Lipophilicity in octanol/water (LogPo/w). The settings on record: read-out: Lipophilicity (o/w), LogPo/w. It counts as physicochemical. The procedure: (§3) spectrometer (Pharmacia Biotech).
(§4) Serum protein binding and LogP o/w
(§5) functionalized Cy5 were determined as previously described (7).
(§6) The stability towards glutathione of Cy5-

Data set [5] can be described thus: Stability towards glutathione. It counts as physicochemical. The protocol: as §3, §4, §5, §6
Data set [6] in a line: Serum protein binding. It counts as in vitro ADME. The protocol:
as §3, §4, §5, §6

The conditions of data set [7]: serum.
Data set [8] in a line: Solubility in H2O. As to conditions: water; saturated solution in H2O at r.t., centrifugation, absorption of supernatant (UV/Vis). It counts as physicochemical.

Molecules are shown by their SMILES. Values after ≈ are worked out from the molar mass of the structure shown. Residues, ends and D or L forms follow the SMILES beside them. *: point of attachment. X1 = CC1(C)C(/C=C/C=C/C=C2/N(CCCCS(=O)(=O)O)c3ccc(S(=O)(=O)O)cc3C2(C)C)=[N+](CCCCCC(=O)NCCN2C(=O)CC(*)C2=O)c2ccc(S(=O)(=O)[O-])cc21; X2 = CC1(C)C(=C/C=C/C=C/C2=[N+](CCCCS(=O)(=O)O)c3ccc(S(=O)(=O)[O-])cc3C2(C)C)N(CCCCCC(=O)NCCN2C(=O)CC(*)C2=O)c2ccc(S(=O)(=O)O)cc21; X3 = O=C(O)CN(CCN(CCN(CC(=O)O)CC(=O)O)CC(=O)NCCN1C(=O)CC(*)C1=O)CC(=O)O

As to `CC[C@H](C)[C@H](NC(=O)[C@H](CC(=O)O)NC(=O)[C@@H]1CCCN1C(=O)[C@@H]1CCCN1C(=O)[C@H](CC(N)=O)NC(=O)[C@H](CCCCN)NC(C)=O)C(=O)N[C@H](C(=O)NCC(=O)N[C@@H](CCCCN)C(=O)N[C@H](C(=O)N[C@@H](CO)C(=O)N[C@@H](CCC(N)=O)C(=O)N[C@H](C(=O)N[C@H](C(=O)N[C@@H](CC(C)C)C(=O)N[C@@H](Cc1ccc(O)cc1)C(=O)N[C@H](C(=O)N[C@@H](Cc1ccccc1)C(=O)N[C@@H](CCC(=O)O)C(=O)N[C@@H](CCCCN)C(=O)N[C@H](C(=O)N1CCC[C@H]1C(=O)N[C@H](C(=O)N[C@@H](CCCNC(=N)N)C(=O)N[C@@H](Cc1ccc(O)cc1)C(=O)N[C@@H](CSC1CC(=O)N(CCNC(=O)CCCCC[N+]2=C(/C=C/C=C/C=C3/N(CCCCS(=O)(=O)O)c4ccc(S(=O)(=O)O)cc4C3(C)C)C(C)(C)c3cc(S(=O)(=O)[O-])ccc32)C1=O)C(N)=O)[C@@H](C)O)C(C)C)C(C)C)[C@@H](C)O)C(C)C)[C@@H](C)O)C(C)C` (stereo partly drawn) [Cy5-P0_101–125] (Ac-KNPPDIVGKTSQVTLYVFEKVPTRYC(X1)-NH2), the “Cy5-related fluorescence remaining after blocking with P0Ab” value in data set [1] is 13.5 ± 7.1%.

For `C[N+]1=C(/C=C/C=C/C=C2/N(CCCCCC(=O)NCCN3C(=O)C=CC3=O)c3ccccc3C2(C)C)C(C)(C)c2ccccc21.[Cl-]` [Cy5-Maleimide], the “staining of P0-expressing Schwannoma cells” value in data set [2] is “no staining was observed”.

As for `CC[C@H](C)[C@H](NC(=O)[C@H](CC(=O)O)NC(=O)[C@@H]1CCCN1C(=O)[C@@H]1CCCN1C(=O)[C@H](CC(N)=O)NC(=O)[C@H](CCCCN)NC(C)=O)C(=O)N[C@H](C(=O)NCC(=O)N[C@@H](CCCCN)C(=O)N[C@H](C(=O)N[C@@H](CO)C(=O)N[C@@H](CCC(N)=O)C(=O)N[C@H](C(=O)N[C@H](C(=O)N[C@@H](CC(C)C)C(=O)N[C@@H](Cc1ccc(O)cc1)C(=O)N[C@H](C(=O)N[C@@H](Cc1ccccc1)C(=O)N[C@@H](CCC(=O)O)C(=O)N[C@@H](CCCCN)C(=O)N[C@H](C(=O)N1CCC[C@H]1C(=O)N[C@H](C(=O)N[C@@H](CCCNC(=N)N)C(=O)N[C@@H](Cc1ccc(O)cc1)C(=O)N[C@@H](CSC1CC(=O)N(CCNC(=O)CN(CCN(CC(=O)O)CC(=O)O)CCN(CC(=O)O)CC(=O)O)C1=O)C(N)=O)[C@@H](C)O)C(C)C)C(C)C)[C@@H](C)O)C(C)C)[C@@H](C)O)C(C)C` (stereo partly drawn) [[^111In]In-DTPA-P0_101–125, metal not drawn] (Ac-KNPPDIVGKTSQVTLYVFEKVPTRYC(X3)-NH2), the tissue uptake – broadly, the percentage of the injected dose found per gram of tissue – at 4 h in data set [3] turned out to be 0.12 ± 0.03 %ID/g.

In the case of `CC[C@H](C)[C@H](NC(=O)[C@H](CC(=O)O)NC(=O)[C@@H]1CCCN1C(=O)[C@@H]1CCCN1C(=O)[C@H](CC(N)=O)NC(=O)[C@H](CCCCN)NC(C)=O)C(=O)N[C@H](C(=O)NCC(=O)N[C@@H](CCCCN)C(=O)N[C@H](C(=O)N[C@@H](CO)C(=O)N[C@@H](CCC(N)=O)C(=O)N[C@H](C(=O)N[C@H](C(=O)N[C@@H](CC(C)C)C(=O)N[C@@H](Cc1ccc(O)cc1)C(=O)N[C@H](C(=O)N[C@@H](Cc1ccccc1)C(=O)N[C@@H](CCC(=O)O)C(=O)N[C@@H](CCCCN)C(=O)N[C@H](C(=O)N1CCC[C@H]1C(=O)N[C@H](C(=O)N[C@@H](CCCNC(=N)N)C(=O)N[C@@H](Cc1ccc(O)cc1)C(=O)N[C@@H](CSC1CC(=O)N(CCNC(=O)CCCCCN2C(=C/C=C/C=C/C3=[N+](CCCCS(=O)(=O)O)c4ccc(S(=O)(=O)[O-])cc4C3(C)C)C(C)(C)c3cc(S(=O)(=O)O)ccc32)C1=O)C(N)=O)[C@@H](C)O)C(C)C)C(C)C)[C@@H](C)O)C(C)C)[C@@H](C)O)C(C)C` (stereo partly drawn) [Cy5-P0_101–125] (Ac-KNPPDIVGKTSQVTLYVFEKVPTRYC(X2)-NH2), the logP in data set [4] was -1.39 ± 0.09. Besides, in data set [5] (6 hr at 37 °C), the “degradation when incubated with glutathione” value stood at 8%. Besides, the share remaining – broadly, the share of the starting amount still present when the sample was taken – at 6 h in data set [5] (buffer or solvent, 37 °C water bath, stock in H2O, HPLC UV/Vis) is 92%. For the same molecule, in data set [6], the Serum protein binding is 89% ± 2%. Further, in data set [7], the share remaining at 24 h stood at 99%. Also, the thermodynamic solubility (in general, solubility found after equilibrating the solid with the medium) in data set [8] came to 172 µM (≈ 673 µg/mL).

The values are drawn from article PMC8164657, “Intraoperative visualization of nerves using a myelin protein-zero specific fluorescent tracer” (EJNMMI Research, 2021).
